From the supplement of paper PMC11451515

Tested on: NOMO1
Experiment: cell viability relative to DMSO control; higher = less cytotoxic
Details: 48 h
How it was run: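 Three leukemia lines were tested: NOMO1 and SEM at 500 cells/well and P12-Ichikawa at 1000 cells/well. Each was adapted for at least four passages in each medium and seeded in 5 μl in 1536-well plates, and library compounds in DMSO were pin-dosed from 47 μM to 0.79 nM in 11 threefold steps. After 48 h at 37°C, CellTiter-Glo One luminescence was read. Viability is a percentage relative to DMSO wells on each plate, with cell-free wells as background.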

[1] = HPLM + 10% dialyzed FBS, 0.000781 µM
[2] = HPLM + 10% dialyzed FBS, 0.00234 µM
[3] = HPLM + 10% dialyzed FBS, 0.00702 µM
[4] = HPLM + 10% dialyzed FBS, 0.0211 µM
[5] = HPLM + 10% dialyzed FBS, 0.0632 µM
[6] = HPLM + 10% dialyzed FBS, 0.19 µM
[7] = HPLM + 10% dialyzed FBS, 0.569 µM
[8] = HPLM + 10% dialyzed FBS, 1.71 µM
[9] = HPLM + 10% dialyzed FBS, 5.12 µM
[10] = HPLM + 10% dialyzed FBS, 15.4 µM
[11] = HPLM + 10% dialyzed FBS, 46.1 µM
[12] = RPMI 5 mM glucose + 10% FBS, 0.000781 µM
[13] = RPMI 5 mM glucose + 10% FBS, 0.00234 µM
[14] = RPMI 5 mM glucose + 10% FBS, 0.00702 µM
[15] = RPMI 5 mM glucose + 10% FBS, 0.0211 µM
[16] = RPMI 5 mM glucose + 10% FBS, 0.0632 µM
[17] = RPMI 5 mM glucose + 10% FBS, 0.19 µM
[18] = RPMI 5 mM glucose + 10% FBS, 0.569 µM
[19] = RPMI 5 mM glucose + 10% FBS, 1.71 µM
[20] = RPMI 5 mM glucose + 10% FBS, 5.12 µM
[21] = RPMI 5 mM glucose + 10% FBS, 15.4 µM
[22] = RPMI 5 mM glucose + 10% FBS, 46.1 µM
[23] = RPMI 5 mM glucose + 10% dialyzed FBS, 0.000781 µM
[24] = RPMI 5 mM glucose + 10% dialyzed FBS, 0.00234 µM
[25] = RPMI 5 mM glucose + 10% dialyzed FBS, 0.00702 µM
[26] = RPMI 5 mM glucose + 10% dialyzed FBS, 0.0211 µM
[27] = RPMI 5 mM glucose + 10% dialyzed FBS, 0.0632 µM
[28] = RPMI 5 mM glucose + 10% dialyzed FBS, 0.19 µM
[29] = RPMI 5 mM glucose + 10% dialyzed FBS, 0.569 µM
[30] = RPMI 5 mM glucose + 10% dialyzed FBS, 1.71 µM
[31] = RPMI 5 mM glucose + 10% dialyzed FBS, 5.12 µM
[32] = RPMI 5 mM glucose + 10% dialyzed FBS, 15.4 µM
[33] = RPMI 5 mM glucose + 10% dialyzed FBS, 46.1 µM

SMILES | cell viability [1] | cell viability [2] | cell viability [3] | cell viability [4] | cell viability [5] | cell viability [6] | cell viability [7] | cell viability [8] | cell viability [9] | cell viability [10] | cell viability [11] | cell viability [12] | cell viability [13] | cell viability [14] | cell viability [15] | cell viability [16] | cell viability [17] | cell viability [18] | cell viability [19] | cell viability [20] | cell viability [21] | cell viability [22] | cell viability [23] | cell viability [24] | cell viability [25] | cell viability [26] | cell viability [27] | cell viability [28] | cell viability [29] | cell viability [30] | cell viability [31] | cell viability [32] | cell viability [33]
Cc1csc(-c2nnc(Nc3ccc(Oc4ncccc4-c4ccnc(N)n4)cc3)c3ccccc23)c1 | 106% | 101% | 113% | 79% | 95.3% | 89.3% | 99.5% | 86.7% | 72.6% | 76.3% | 84.1% | 99.9% | 111% | 97.5% | 53.2% | 45.9% | 52.6% | 75.1% | 81.6% | 65.9% | 67.3% | 74.1% | 105% | 103% | 89.8% | 60.3% | 62% | 59% | 72.6% | 77.9% | 72.5% | 84.1% | 80.5%
CC1=CC(=CC(=C1C\C2=N\CCN2)C)C(C)(C)C | 91.4% | 115% | 107% | 129% | 104% | 109% | 108% | 87.7% | 57.4% | 34.2% | 35.9% | 99.3% | 98.7% | 92.9% | 100% | 114% | 96.3% | 98.4% | 91.1% | 69.5% | 51.5% | 43.9% | 86.8% | 106% | 101% | 100% | 109% | 99.8% | 116% | 78.9% | 49.1% | 56.8% | 50.7%
CC(=O)Oc1ccccc1C(=O)Nc1ncc([N+](=O)[O-])s1 | 98.9% | 100% | 98.9% | 107% | 111% | 105% | 106% | 96.1% | 98.4% | 71.8% | 89.4% | 84% | 92% | 93.4% | 96.4% | 115% | 92.3% | 102% | 103% | 104% | 97.6% | 96.9% | 83.7% | 95.2% | 77.7% | 86.3% | 94.8% | 98.8% | 95.7% | 98.4% | 86.3% | 69.2% | 75.1%
COC(=O)C\1=C(C)\N\C(=C(/C1C2=CC=CC3=NON=C23)C(=O)OC(C)C)C (stereo unspecified) | 115% | 116% | 104% | 111% | 111% | 108% | 96.3% | 89.8% | 88.8% | 96.3% | 85.1% | 95.4% | 94.6% | 91.3% | 99.3% | 103% | 89.4% | 94.5% | 85.2% | 81.4% | 86.6% | 94.7% | 105% | 101% | 100% | 108% | 88.7% | 92.3% | 87.8% | 102% | 92.8% | 93.4% | 106%
CNC(=O)c1ccc(Nc2cc(Nc3ccccc3[S+](=O)([O-])C(C)C)c3cc[nH]c3n2)nc1 | 98.4% | 105% | 111% | 105% | 116% | 102% | 108% | 91.7% | 77.6% | 70.6% | 31.7% | 98% | 100% | 101% | 103% | 102% | 106% | 108% | 102% | 49.2% | 51.9% | 25.1% | 89.1% | 99.1% | 101% | 106% | 102% | 102% | 109% | 95.7% | 57.2% | 56.7% | 34%
CC(C(=O)O)c1ccc2c(c1)CC(=O)c1ccccc1S2 (stereo unspecified) | 114% | 106% | 113% | 120% | 121% | 128% | 109% | 87.2% | 68.2% | 25.7% | 30.6% | 104% | 115% | 116% | 112% | 107% | 106% | 103% | 103% | 103% | 22.3% | 21.2% | 99.6% | 116% | 94.2% | 105% | 113% | 105% | 103% | 85.3% | 87.7% | 23% | 24%
O=C(O)c1cc(/N=N/c2ccc([S+](=O)([O-])Nc3ccccn3)cc2)ccc1O | 102% | 113% | 108% | 104% | 121% | 109% | 104% | 115% | 111% | 105% | 91% | 101% | 107% | 115% | 96.8% | 99.2% | 102% | 102% | 98.2% | 114% | 98.7% | 97.6% | 95.1% | 96.9% | 109% | 94.3% | 106% | 97% | 115% | 111% | 91.2% | 98.9% | 102%
